Experiment: xn = mol fraction of the nth substance listed
Settings: 101 kPa, Liquid, Vibrating tube method

NC=O [formamide] + O
Settings	mass density [kg/m3]
274.15 K, x1 = 0.00244	1001.03
274.15 K, x1 = 0.00515	1002.28
274.15 K, x1 = 0.0086	1003.85
274.15 K, x1 = 0.02032	1009
274.15 K, x1 = 0.03478	1014.99
274.15 K, x1 = 0.04976	1020.81
274.15 K, x1 = 0.06674	1026.93
274.15 K, x1 = 0.08229	1032.24
274.15 K, x1 = 0.1171	1043.06
275.15 K, x1 = 0.00244	1001.06
275.15 K, x1 = 0.00515	1002.29
275.15 K, x1 = 0.0086	1003.84
275.15 K, x1 = 0.02032	1008.93
275.15 K, x1 = 0.03478	1014.85
275.15 K, x1 = 0.04976	1020.62
275.15 K, x1 = 0.06674	1026.67
275.15 K, x1 = 0.08229	1031.93
275.15 K, x1 = 0.1171	1042.67
276.15 K, x1 = 0.00244	1001.07
276.15 K, x1 = 0.00515	1002.28
276.15 K, x1 = 0.0086	1003.81
276.15 K, x1 = 0.02032	1008.85
276.15 K, x1 = 0.03478	1014.7
276.15 K, x1 = 0.04976	1020.4
276.15 K, x1 = 0.06674	1026.42
276.15 K, x1 = 0.08229	1031.63
276.15 K, x1 = 0.1171	1042.28
277.15 K, x1 = 0.00244	1001.06
277.15 K, x1 = 0.00515	1002.26
277.15 K, x1 = 0.0086	1003.77
277.15 K, x1 = 0.02032	1008.75
277.15 K, x1 = 0.03478	1014.54
277.15 K, x1 = 0.04976	1020.19
277.15 K, x1 = 0.06674	1026.14
277.15 K, x1 = 0.08229	1031.3
277.15 K, x1 = 0.1171	1041.88
278.15 K, x1 = 0.00244	1001.04
278.15 K, x1 = 0.00515	1002.23
278.15 K, x1 = 0.0086	1003.72
278.15 K, x1 = 0.02032	1008.64
278.15 K, x1 = 0.03478	1014.37
278.15 K, x1 = 0.04976	1019.96
278.15 K, x1 = 0.06674	1025.86
278.15 K, x1 = 0.08229	1030.99
278.15 K, x1 = 0.1171	1041.47
278.15 K, x1 = 0.1745	1056.3
278.15 K, x1 = 0.2169	1065.71
278.15 K, x1 = 0.2557	1073.39
278.15 K, x1 = 0.3026	1081.73
278.15 K, x1 = 0.351	1089.33
278.15 K, x1 = 0.4027	1096.66
278.15 K, x1 = 0.4487	1102.5
278.15 K, x1 = 0.4886	1107.05
278.15 K, x1 = 0.5601	1114.6
278.15 K, x1 = 0.5916	1117.67
278.15 K, x1 = 0.6674	1124.31
278.15 K, x1 = 0.7066	1127.46
278.15 K, x1 = 0.7495	1130.64
278.15 K, x1 = 0.7931	1133.73
278.15 K, x1 = 0.8601	1138.23
278.15 K, x1 = 0.8996	1140.73
278.15 K, x1 = 0.948	1143.61
278.15 K, x1 = 0.9753	1145.18
278.15 K, x1 = 0.9847	1145.72
278.15 K, x1 = 0.9897	1146.01
278.15 K, x1 = 0.9959	1146.38
278.15 K, x1 = 1	1146.62
279.15 K, x1 = 0.00244	1001
279.15 K, x1 = 0.00515	1002.18
279.15 K, x1 = 0.0086	1003.65
279.15 K, x1 = 0.02032	1008.52
279.15 K, x1 = 0.03478	1014.19
279.15 K, x1 = 0.04976	1019.74
279.15 K, x1 = 0.06674	1025.57
279.15 K, x1 = 0.08229	1030.68
279.15 K, x1 = 0.1171	1041.07
280.15 K, x1 = 0.00244	1000.95
280.15 K, x1 = 0.00515	1002.11
280.15 K, x1 = 0.0086	1003.57
280.15 K, x1 = 0.02032	1008.39
280.15 K, x1 = 0.03478	1014
280.15 K, x1 = 0.04976	1019.49
280.15 K, x1 = 0.06674	1025.28
280.15 K, x1 = 0.08229	1030.32
280.15 K, x1 = 0.1171	1040.65
281.15 K, x1 = 0.00244	1000.89
281.15 K, x1 = 0.00515	1002.04
281.15 K, x1 = 0.0086	1003.47
281.15 K, x1 = 0.02032	1008.25
281.15 K, x1 = 0.03478	1013.8
281.15 K, x1 = 0.04976	1019.23
281.15 K, x1 = 0.06674	1024.97
281.15 K, x1 = 0.08229	1029.97
281.15 K, x1 = 0.1171	1040.23
282.15 K, x1 = 0.00244	1000.81
282.15 K, x1 = 0.00515	1001.94
282.15 K, x1 = 0.0086	1003.37
282.15 K, x1 = 0.02032	1008.09
282.15 K, x1 = 0.03478	1013.58
282.15 K, x1 = 0.04976	1018.97
282.15 K, x1 = 0.06674	1024.66
282.15 K, x1 = 0.08229	1029.6
282.15 K, x1 = 0.1171	1039.81
283.15 K, x1 = 0.00244	1000.72
283.15 K, x1 = 0.00515	1001.84
283.15 K, x1 = 0.0086	1003.25
283.15 K, x1 = 0.02032	1007.94
283.15 K, x1 = 0.03478	1013.36
283.15 K, x1 = 0.04976	1018.7
283.15 K, x1 = 0.06674	1024.35
283.15 K, x1 = 0.08229	1029.24
283.15 K, x1 = 0.1171	1039.36
288.15 K, x1 = 0.00244	1000.07
288.15 K, x1 = 0.00515	1001.13
288.15 K, x1 = 0.0086	1002.47
288.15 K, x1 = 0.02032	1006.89
288.15 K, x1 = 0.03478	1012.11
288.15 K, x1 = 0.04976	1017.23
288.15 K, x1 = 0.06674	1022.65
288.15 K, x1 = 0.08229	1027.38
288.15 K, x1 = 0.1171	1037.14
288.15 K, x1 = 0.1745	1051.09
288.15 K, x1 = 0.2169	1059.95
288.15 K, x1 = 0.2557	1067.27
288.15 K, x1 = 0.3026	1075.25
288.15 K, x1 = 0.351	1082.54
288.15 K, x1 = 0.4027	1089.57
288.15 K, x1 = 0.4487	1095.2
288.15 K, x1 = 0.4886	1099.61
288.15 K, x1 = 0.5601	1106.92
288.15 K, x1 = 0.5916	1109.89
288.15 K, x1 = 0.6674	1116.35
288.15 K, x1 = 0.7066	1119.42
